Measured values reported in article PMC12312386, “Multiple transactivation domains of EZH2 bind to the TAZ2 domain of p300 and stimulate the acetyltransferase function of p300” (Biochemical Journal, 2025).
No end group written: not given here.

Experiments:
[1] = biological target: T1, p300TAZ2 (TAZ2 domain of p300) (Homo sapiens, UniProt Q09472, A1723W); test: Microscale thermophoresis (MST) binding of p300TAZ2-His to EZH2 TAD peptides; conditions: direct binding, p300TAZ2-6×His labeled RED-tris-NTA, 10 nM; 25 mM Tris pH 7.5, 150 mM NaCl, 2.5 mM DTT; 1:1 stoichiometry; average ± SD of three (EZH2TAD2, EZH2TAD3) or four (EZH2TAD1) independent measurements
T1 construct: Human p300TAZ2 [aa 1722–1812, pGEX-4T-1 vector with an additional tobacco etch virus (TEV) cleavage site]; GST (pGEX-4T-1, TEV site) (N, cleaved yes); made in house; host or cells: Escherichia coli Rosetta-2 (DE3) pLysS
T1 sequence (Q09472 1722-1812 A1723W): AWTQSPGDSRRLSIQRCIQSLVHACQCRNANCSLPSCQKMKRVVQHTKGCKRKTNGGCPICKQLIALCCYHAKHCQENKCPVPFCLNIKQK
Method: After induction with isopropyl b-D-1-thiogalactopyranoside (IPTG), harvesting, and lysis in buffer [50 mM Tris pH 7.0, 1 M NaCl, 5 mM dithiothreitol (DTT), 1 mM phenylmethanesulfonylfluoride (PMSF) and DNase] by sonication, the proteins were purified on glutathione agarose beads (Pierce) and eluted with buffer containing reduced L-glutathione (Fisher). The GST tag was either cleaved with TEV protease overnight at 22°C or kept intact during subsequent purification steps. Both GST- and His-tagged proteins, as well as untagged p300TAZ2, were further purified by cation exchange (HiTrap SP HP, Cytiva) or heparin affinity chromatography (HiTrap Heparin HP, Cytiva).
MST experiments were carried out on a Monolith NT.115 instrument (NanoTemper). All experiments were performed using SEC-purified p300TAZ2-6×His protein in 25 mM Tris pH 7.5 buffer, 150 mM NaCl, and 2.5 mM DTT. p300TAZ2-6×His was labeled using a His-Tag Labeling Kit RED-tris-NTA (2nd Generation, NanoTemper) and kept constant at 10 nM. Dissociation constants were determined using a direct binding assay in which peptide was varied in concentration by serial dilution of discrete samples. The measurements were performed at 50% LED and medium MST power with 3-s pre-laser time, 20-s laser on-time, and 1-s off-time.

[2] = test system: FLAG-HA-tagged p300 catalytic core (aa 1035–1830 of p300); test: Histone acetyltransferase (HAT) assay, Western blot, recombinant nucleosome substrate; type: biochemical; conditions: 1 μg p300 core, 2.5, 5 or 10 μg GST-tagged TADs, 1 μg nucleosome, 100 mM acetyl-CoA, 50 mM Tris-HCl pH 8.0, 30°C, 15 min
Method: Histone acetyltransferase assay
For HAT assays, FLAG-HA-tagged p300 core (aa 1035–1830 of p300) in a pCDH vector was expressed in 293 T cells for two days. Cells were lysed in lysis buffer (50 mM Tris-HCl pH 7.5, 300 mM NaCl, 1.5 mM MgCl2, 1 mM EDTA, 1% Triton100, 10% glycerol, 1 mM PMSF, and protease inhibitors) and sonicated. Cell lysates were incubated with anti-Flag M2 beads (Sigma) at 4° for 4 h. The beads were then washed three times with buffer (50 mM Tris-HCl pH 7.5, 500 mM NaCl, 1.5 mM MgCl2, 0.2 mM EDTA, 0.1% NP40, 10% glycerol, and 1 mM PMSF), and the protein was eluted with elution buffer (50 mM Tris-HCl pH 7.5, 300 mM NaCl, 1 mM DTT, 10% glycerol, and 0.4 mg/ml Flag peptide). […]
Purified FLAG-HA-tagged p300 catalytic core fragment (1 μg) was incubated with increasing amounts of GST-tagged EZH2TADs and GST-tagged EZH1TADs (2.5, 5, or 10 μg) and the nucleosome (1 μg) in HAT reaction buffer (50 mM Tris-HCl pH 8.0, 100 mM NaCl, 10% glycerol, 1 mM DTT, […], and 1× cOmplete EDTA-free Protease Inhibitor Cocktail) at 30°C for 15 min. Reactions were stopped by boiling at 95°C for 5 min in 2×SDS loading buffer, and samples were analyzed by SDS-PAGE and Western blot. […]

GST-p300TAZ2 = test: Mass photometry (MP) of GST-p300TAZ2 with EZH2TAD constructs; type: binding, human
Method: [37]. […] After induction with isopropyl b-D-1-thiogalactopyranoside (IPTG), harvesting, and lysis in buffer [50 mM Tris pH 7.0, 1 M NaCl, 5 mM dithiothreitol (DTT), 1 mM phenylmethanesulfonylfluoride (PMSF) and DNase] by sonication, the proteins were purified on glutathione agarose beads (Pierce) and eluted with buffer containing reduced L-glutathione (Fisher). The GST tag was either cleaved with TEV protease overnight at 22°C or kept intact during subsequent purification steps. […] The EZH2TAD1 ([…]) construct was generated by deletion using Q5 Hot Start High-Fidelity kit (NEB) and confirmed by DNA sequencing. Both constructs were expressed in E. coli Rosetta-2 (DE3) pLysS cells grown in LB media and induced at an OD600 of 0.6-0.8 with 1 mM IPTG for 16 h at 16°C. Cells were harvested by centrifugation, suspended in buffer (50 mM Tris pH 7.5, 500 mM NaCl, 1% CHAPS, 2 mM DTT, 1 mM PMSF, Roche cOmplete Protease Inhibitor Cocktail, and DNase), and lysed by sonication. […] When necessary, EZH2TAD constructs were further purified using a Superdex 200 Increase 10/300 GL column (Cytiva) with monitoring at 205 and 280 nm. […] To overcome the minimum size limit, a GST-fusion construct was used for one of the components in each sample. […] Ten microliter of each sample was loaded into the sample wells of the silicon cassettes assembled onto MassGlass UC coverslips (Refeyn, Ltd.). […]

p300TAZ2 = test: Mass photometry (MP) of GST-EZH2TAD1 with p300TAZ2; type: binding, human
Method: [37]. Briefly, both ^15N-labeled and unlabeled constructs were expressed in Escherichia coli Rosetta-2 (DE3) pLysS cells grown in either M9 minimal media or TB, both supplemented with 50-150 μM ZnCl2. After induction with isopropyl b-D-1-thiogalactopyranoside (IPTG), harvesting, and lysis in buffer [50 mM Tris pH 7.0, 1 M NaCl, 5 mM dithiothreitol (DTT), 1 mM phenylmethanesulfonylfluoride (PMSF) and DNase] by sonication, the proteins were purified on glutathione agarose beads (Pierce) and eluted with buffer containing reduced L-glutathione (Fisher). The GST tag was either cleaved with TEV protease overnight at 22°C or kept intact during subsequent purification steps. […] Human EZH2[…]3 ([…]) construct with a C-terminal 6×His tag was cloned into a pGEX-6P-1 vector (GenScript). The EZH2TAD1 ([…]) construct was generated by deletion using Q5 Hot Start High-Fidelity kit (NEB) and confirmed by DNA sequencing. Both constructs were expressed in E. coli Rosetta-2 (DE3) pLysS cells grown in LB media and induced at an OD600 of 0.6-0.8 with 1 mM IPTG for 16 h at 16°C. Cells were harvested by centrifugation, suspended in buffer (50 mM Tris pH 7.5, 500 mM NaCl, 1% CHAPS, 2 mM DTT, 1 mM PMSF, Roche cOmplete Protease Inhibitor Cocktail, and DNase), and lysed by sonication. […] When necessary, EZH2TAD constructs were further purified using a Superdex 200 Increase 10/300 GL column (Cytiva) with monitoring at 205 and 280 nm. Mass Photometry […] To overcome the minimum size limit, a GST-fusion construct was used for one of the components in each sample. […] Ten microliter of each sample was loaded into the sample wells of the silicon cassettes assembled onto MassGlass UC coverslips (Refeyn, Ltd.). Measurements were performed at room temperature in buffer (50 mM Tris pH 7.5, 150 mM NaCl, 5 mM DTT). β-amylase was used as calibration standard (56 kDa, 112 kDa, and 224 kDa). After the focus was set and locked, movies were captured for 60 s (2800 frames) using AcquireMP software (Refeyn Ltd). Data were processed using DiscoverMP (Refeyn Ltd).

Substance: DGTFIEELIKNYD [EZH2TAD1]
- Kd [1]: 530 ± 80 nM

Substance: EZH2 WT: GST-tagged EZH2TAD1-TAD2-TAD3 (aa 119–267)
- H3K18 acetylation by p300 core ([2]; H3K18ac Western blot): dose-dependent increase in H3K18 and H3K27 acetylation
- H3K27 acetylation by p300 core ([2]; H3K27ac Western blot): dose-dependent increase in H3K18 and H3K27 acetylation

Substance: EZH2TAD1-TAD2-TAD3: recombinant human EZH2 aa 142–231 construct with a C-terminal 6×His tag, used in mass photometry
- MP peak of complex with GST-p300TAZ2 (GST-p300TAZ2; 20 nM GST-p300TAZ2 + 1 μM EZH2TAD1-TAD2-TAD3, room temperature, 50 mM Tris pH 7.5, 150 mM NaCl, 5 mM DTT): ~ 224 kDa
- stoichiometry of the complex with GST-p300TAZ2 (GST-p300TAZ2; from MP peak, 20 nM GST-p300TAZ2, EZH2TAD1-TAD2 5 μM or EZH2TAD1-TAD2-TAD3 1 μM): six molecules of GST-p300TAZ2 and one molecule of EZH2TAD1-TAD2-TAD3

Substance: GST-EZH2TAD1: recombinant GST-tagged EZH2TAD1 (aa 142–160) construct (DGTFIEELIKNYDGKVHGD-His6; also: GST tag, end not given here)
- shift of the MP peak upon addition of p300TAZ2 (p300TAZ2; 20 nM GST-EZH2TAD1, 0.1 μM p300TAZ2): ~ 14 kDa
- oligomeric state in the apo-state (p300TAZ2; 20 nM GST-EZH2TAD1 alone): formed a dimer in the apo-state
- MP peak, apo GST-EZH2TAD1 (p300TAZ2; 20 nM GST-EZH2TAD1 alone, room temperature, 50 mM Tris pH 7.5, 150 mM NaCl, 5 mM DTT): ~ 70 kDa
- oligomeric state / stoichiometry of GST-EZH2TAD1 complexes (p300TAZ2; 20 nM GST-EZH2TAD1 with 0.1 μM p300TAZ2): dimeric GST-EZH2TAD1 bound by one molecule of p300TAZ2 and by two molecules of p300TAZ2

Substance: NDEIFVELVNALGQYNDDD [EZH2TAD2]
- Kd [1]: 310 nM

Substance: SDKIFEAISSMF [EZH2TAD3]
- Kd [1]: 520 ± 60 nM
